# Test results taken from US9365583B2, “Substituted pyrazoles and uses thereof” (Genentech, Inc., priority 2013, dated 2016).
# Target: T1, N-terminally GST-tagged DLK (catalytic domain amino acid 1-520) (Homo sapiens, UniProt Q12852)
# T1 construct: N-terminally GST-tagged DLK (catalytic domain amino acid 1-520); purchased Carna Bioscience
# T1 sequence (Q12852 1-520): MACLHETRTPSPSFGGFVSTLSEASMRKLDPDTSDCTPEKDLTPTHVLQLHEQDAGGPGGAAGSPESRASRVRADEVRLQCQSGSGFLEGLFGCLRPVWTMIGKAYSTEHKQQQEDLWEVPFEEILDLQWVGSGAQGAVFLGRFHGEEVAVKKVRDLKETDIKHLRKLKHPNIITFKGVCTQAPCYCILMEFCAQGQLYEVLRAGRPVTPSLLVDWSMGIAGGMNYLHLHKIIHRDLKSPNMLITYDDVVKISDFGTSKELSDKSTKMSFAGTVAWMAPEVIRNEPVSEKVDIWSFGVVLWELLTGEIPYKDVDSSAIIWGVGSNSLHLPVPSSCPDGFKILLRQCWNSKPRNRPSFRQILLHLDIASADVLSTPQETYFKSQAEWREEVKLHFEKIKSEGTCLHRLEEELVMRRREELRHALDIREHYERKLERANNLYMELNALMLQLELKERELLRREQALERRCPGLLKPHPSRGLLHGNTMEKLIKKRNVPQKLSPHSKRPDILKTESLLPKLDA
# Assay: DLK TR-FRET inhibition assay
# Assay type: biochemical
# Conditions: 5 nM GST-DLK, 40 nM HIS-MKK4 K131M substrate, 30 μM ATP, 60 minutes at ambient temperature
# How it was run: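 5 nM GST-DLK (aa 1-520), 40 nM HIS-MKK4 K131M and 30 μM ATP reacted 60 min at ambient temperature in HEPES pH 7.5 buffer with 10 mM MgCl2, compound 1:3 serially diluted from 20 uM. TR-FRET detection of phospho-MKK4 used Eu-cryptate anti-phospho-MKK4 plus D2 anti-HIS, read after 3 h (665/615 nm).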
row,Structure (SMILES),Ki [nM]
1,"CC(C)n1nc(-c2cnc(N)c(OCC(F)(F)F)c2)cc1[C@H]1[C@@H]2C[C@@H](N3CCOCC3)C[C@@H]21 [compound 96, 5-(1-isopropyl-5-((1R,3s,5S,6r)-3-morpholinobicyclo[3.1.0]hexan-6-yl)-1H-pyrazol-3-yl)-3-(2,2,2-trifluoroethoxy)pyridin-2-amine]",19
2,"CC(C)n1nc(-c2cnc(N)c(OC(F)(F)F)c2)cc1[C@H]1[C@@H]2C[C@H](N3CCOC[C@@H]3C)C[C@@H]21 [compound 97, 5-(1-isopropyl-5-((1R,3r,5S,6S)-3-((S)-3-methylmorpholino)bicyclo[3.1.0]hexan-6-yl)-1H-pyrazol-3-yl)-3-(trifluoromethoxy) pyridin-2-amine]",4.12
3,"CC(C)n1nc(-c2cnc(N)c(C(F)(F)F)c2)cc1[C@H]1[C@@H]2C[C@H](N3CCOC[C@@H]3C)C[C@@H]21 [compound 98, 5-(1-isopropyl-5-((1R,3r,5S,6S)-3-((S)-3-methylmorpholino)bicyclo[3.1.0]hexan-6-yl)-1H-pyrazol-3-yl)-3-(trifluoromethyl) pyridin-2-amine]",4.89
4,"CC(C)n1nc(-c2cnc(N)c(OC(F)(F)F)c2)cc1[C@H]1[C@@H]2C[C@@H](N3CCCOCC3)C[C@@H]21 [compound 99, 5-(5-((1R,3s,5S,6r)-3-(1,4-oxazepan-4-yl)bicyclo[3.1.0]hexan-6-yl)-1-isopropyl-1H-pyrazol-3-yl)-3-(trifluoromethoxy)pyridin-2-amine]",1.16
5,"CC(C)n1nc(-c2cnc(N)c(C(F)(F)F)c2)cc1[C@H]1[C@@H]2C[C@H](N3CCCOCC3)C[C@@H]21 [compound 100, 5-(5-((1R,3r,5S,6r)-3-(1,4-oxazepan-4-yl)bicyclo[3.1.0]hexan-6-yl)-1-isopropyl-1H-pyrazol-3-yl)-3-(trifluoromethyl)pyridin-2-amine]",1.03
6,"CC(C)n1nc(-c2cnc(N)c(OC(F)(F)F)c2)cc1[C@H]1[C@@H]2C[C@H](N3CCCOCC3)C[C@@H]21 [compound 101, 5-(5-((1R,3r,5S,6r)-3-(1,4-oxazepan-4-yl)bicyclo[3.1.0]hexan-6-yl)-1-isopropyl-1H-pyrazol-3-yl)-3-(trifluoromethoxy)pyridin-2-amine]",0.44
7,"CC(C)n1nc(-c2cnc(N)c(C(F)(F)F)c2)cc1[C@H]1[C@@H]2C[C@@H](N3CCCOCC3)C[C@@H]21 [compound 102, 5-(5-((1R,3s,5S,6r)-3-(1,4-oxazepan-4-yl)bicyclo[3.1.0]hexan-6-yl)-1-isopropyl-1H-pyrazol-3-yl)-3-(trifluoromethyl)pyridin-2-amine]",0.79
8,"CC(C)n1nc(-c2cnc(N)c(C(F)(F)F)c2)cc1[C@H]1[C@@H]2C[C@@H](N3CCOC[C@@H]3C)C[C@@H]21 [compound 103, 5-(1-isopropyl-5-((1R,3s,5S,6S)-3-((S)-3-methylmorpholino)bicyclo[3.1.0]hexan-6-yl)-1H-pyrazol-3-yl)-3-(trifluoromethyl) pyridin-2-amine]",1.28
9,"CC(C)n1nc(-c2cnc(N)c(OC(F)(F)F)c2)cc1[C@H]1[C@@H]2C[C@@H](N3CCOC[C@@H]3C)C[C@@H]21 [compound 104, 5-(1-isopropyl-5-((1R,3s,5S,6S)-3-((S)-3-methylmorpholino)bicyclo[3.1.0]hexan-6-yl)-1H-pyrazol-3-yl)-3-(trifluoromethoxy) pyridin-2-amine]",2.43
10,"CC(C)n1nc(-c2cnc(N)c(OC(F)F)c2)cc1[C@H]1[C@@H]2CC(C)(O)C[C@@H]21 (stereo partly drawn) [compound 105, (1R,5S,6r)-6-(3-(6-amino-5-(difluoro-methoxy)pyridin-3-yl)-1-isopropyl-1H-pyrazol-5-yl)-3-methyl-bicyclo[3.1.0]hexan-3-ol]",18.3
11,"CC(C)n1nc(-c2cnc(N)c(C(=O)N3CCCC3)c2)cc1[C@H]1[C@@H]2C[C@@H](N3CC(F)C3)C[C@@H]21 [compound 106, (2-amino-5-(5-((1R,3s,5S,6r)-3-(3-fluoroazetidin-1-yl)bicyclo [3.1.0]hexan-6-yl)-1-isopropyl-1H-pyrazol-3-yl)pyridin-3-yl) (pyrrolidin-1-yl)methanone]",> 321
12,"CC(C)n1nc(-c2cnc(N)c(C(=O)N3CCCC3)c2)cc1[C@H]1[C@@H]2C[C@H](N3CC(F)C3)C[C@@H]21 [compound 107, (2-amino-5-(5-((1R,3r,5S,6r)-3-(3-fluoroazetidin-1-yl)bicyclo [3.1.0]hexan-6-yl)-1-isopropyl-1H-pyrazol-3-yl)pyridin-3-yl) (pyrrolidin-1-yl)methanone]",> 321
13,"CC(C)n1nc(-c2cnc(N)c(C(F)(F)F)c2)cc1[C@H]1[C@@H]2C[C@H](N3CCO[C@@H](C)C3)C[C@@H]21 [compound 108, 5-(1-isopropyl-5-((1R,3r,5S,6S)-3-((S)-2-methylmorpholino)bicyclo[3.1.0]hexan-6-yl)-1H-pyrazol-3-yl)-3-(trifluoromethyl) pyridin-2-amine]",1.6
14,"CC(C)n1nc(-c2cnc(N)c(OC(F)(F)F)c2)cc1[C@H]1[C@@H]2C[C@H](N3CCO[C@@H](C)C3)C[C@@H]21 [compound 109, 5-(1-isopropyl-5-((1R,3r,5S,6S)-3-((S)-2-methylmorpholino)bicyclo[3.1.0]hexan-6-yl)-1H-pyrazol-3-yl)-3-(trifluoromethoxy) pyridin-2-amine]",1.59
15,"CC(C)n1nc(-c2cnc(N)c(C(F)(F)F)c2)cc1[C@H]1[C@@H]2C[C@@H](n3cccn3)C[C@@H]21 [compound 110, 5-(5-((1R,3s,5S,6r)-3-(1H-pyrazol-1-yl)bicyclo[3.1.0]hexan-6-yl)-1-isopropyl-1H-pyrazol-3-yl)-3-(trifluoromethyl)pyridin-2-amine]",3.89
16,"CC(C)n1nc(-c2cnc(N)c(C(F)(F)F)c2)cc1[C@H]1[C@@H]2C[C@H](n3cccn3)C[C@@H]21 [compound 111, 5-(5-((1R,3r,5S,6r)-3-(1H-pyrazol-1-yl)bicyclo[3.1.0]hexan-6-yl)-1-isopropyl-1H-pyrazol-3-yl)-3-(trifluoromethyl)pyridin-2-amine]",8.61
17,"CC(C)n1nc(-c2cnc(N)c(C(F)(F)F)c2)cc1[C@H]1[C@@H]2C[C@@H](N3CCO[C@@H](C)C3)C[C@@H]21 [compound 112, 5-(1-isopropyl-5-((1R,3s,5S,6S)-3-((S)-2-methylmorpholino)bicyclo[3.1.0]hexan-6-yl)-1H-pyrazol-3-yl)-3-(trifluoromethyl) pyridin-2-amine]",5.87
18,"CC(C)n1nc(-c2cnc(N)c(OC(F)(F)F)c2)cc1[C@H]1[C@@H]2C[C@@H](N3CCO[C@@H](C)C3)C[C@@H]21 [compound 113, 5-(1-isopropyl-5-((1R,3s,5S,6S)-3-((S)-2-methylmorpholino)bicyclo[3.1.0]hexan-6-yl)-1H-pyrazol-3-yl)-3-(trifluoromethoxy) pyridin-2-amine]",4.23
19,"CC(C)n1nc(-c2cnc(N)c(C(F)(F)F)c2)cc1[C@H]1[C@@H]2C[C@@H](n3ccnc3)C[C@@H]21 [compound 114, 5-(5-((1R,3s,5S,6r)-3-(1H-imidazol-1-yl)bicyclo[3.1.0]hexan-6-yl)-1-isopropyl-1H-pyrazol-3-yl)-3-(trifluoromethyl)pyridin-2-amine]",15.1
20,"CC(C)n1nc(-c2cnc(N)c(C(F)(F)F)c2)cc1[C@H]1[C@@H]2C[C@H](n3ccnc3)C[C@@H]21 [compound 115, 5-(5-((1R,3r,5S,6r)-3-(1H-imidazol-1-yl)bicyclo[3.1.0]hexan-6-yl)-1-isopropyl-1H-pyrazol-3-yl)-3-(trifluoromethyl)pyridin-2-amine]",9.19
21,"CC(C)n1nc(-c2cnc(N)c(C(F)(F)F)c2)cc1[C@H]1[C@@H]2C[C@H](N3CCN(C4COC4)CC3)C[C@@H]21 [compound 116, 5-(1-isopropyl-5-((1R,3r,5S,6r)-3-(4-(oxetan-3-yl)piperazin-1-yl)bicyclo[3.1.0]hexan-6-yl)-1H-pyrazol-3-yl)-3-(trifluoromethyl) pyridin-2-amine]",7.79
22,"CC(C)n1nc(-c2cnc(N)c(C(F)(F)F)c2)cc1[C@H]1[C@@H]2C[C@@H](N3CCN(C4COC4)CC3)C[C@@H]21 [compound 117, 5-(1-isopropyl-5-((1R,3s,5S,6r)-3-(4-(oxetan-3-yl)piperazin-1-yl)bicyclo[3.1.0]hexan-6-yl)-1H-pyrazol-3-yl)-3-(trifluoromethyl) pyridin-2-amine]",5.26
23,"CC(C)n1nc(-c2cnc(N)c(OC(F)F)c2)cc1[C@H]1[C@@H]2C[C@H](N3C[C@@H](F)[C@@H](F)C3)C[C@@H]21 [compound 118, 3-(difluoromethoxy)-5-(5-((1R,3r,5S,6R)-3-((3S,4R)-3,4-difluoro-pyrrolidin-1-yl)bicyclo[3.1.0]hexan-6-yl)-1-isopropyl-1H-pyrazol-3-yl)pyridin-2-amine]",3.75
